Measurements published in ChEMBL document CHEMBL2074035, “Identification of the hepatic efflux transporters of organic anions using double-transfected Madin-Darby canine kidney II cells expressing human organic anion-transporting polypeptide 1B1 (OATP1B1)/multidrug resistance-associated protein 2, OATP1B1/multidrug resistance 1, and OATP1B1/breast cancer …” (J Pharmacol Exp Ther, 2005).

How the values were obtained:
[1] = target: Canalicular multispecific organic anion transporter 1/Solute carrier organic anion transporter family member 1B1 (Homo sapiens, UniProt Q92887+Q9Y6L6); test: TP_TRANSPORTER: Transepithelial Transport (basal to apical) in OATP1B1/MRP2 double transfected MDCKII cells; assay type: functional, cell-based; conditions: dog, mdck-ii
[2] = target: T1, Broad substrate specificity ATP-binding cassette transporter ABCG2 (Homo sapiens, UniProt Q9UNQ0); test: TP_TRANSPORTER: Transepithelial Transport (basal to apical) in OATP1B1/BCRP double transfected MDCKII cells; assay type: functional, cell-based; conditions: dog, mdck-ii
T1 sequence (Q9UNQ0 whole entry): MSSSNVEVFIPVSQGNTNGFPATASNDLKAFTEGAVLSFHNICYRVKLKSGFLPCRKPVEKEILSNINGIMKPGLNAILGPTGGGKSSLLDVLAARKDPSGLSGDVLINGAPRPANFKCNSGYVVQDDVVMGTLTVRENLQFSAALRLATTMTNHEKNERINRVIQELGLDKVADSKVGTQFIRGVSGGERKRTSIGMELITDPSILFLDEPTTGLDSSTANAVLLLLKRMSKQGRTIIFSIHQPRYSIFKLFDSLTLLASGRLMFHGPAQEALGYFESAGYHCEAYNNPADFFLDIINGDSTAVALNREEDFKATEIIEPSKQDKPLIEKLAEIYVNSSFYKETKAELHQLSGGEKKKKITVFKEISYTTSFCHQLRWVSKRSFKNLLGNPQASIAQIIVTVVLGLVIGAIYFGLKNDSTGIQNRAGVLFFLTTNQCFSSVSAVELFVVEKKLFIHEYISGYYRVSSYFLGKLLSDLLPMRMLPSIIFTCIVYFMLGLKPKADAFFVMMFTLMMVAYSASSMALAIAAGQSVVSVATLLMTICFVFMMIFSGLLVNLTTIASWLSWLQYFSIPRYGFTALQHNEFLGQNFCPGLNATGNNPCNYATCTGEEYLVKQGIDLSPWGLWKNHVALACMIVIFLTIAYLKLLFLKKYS

Activity [1]	Activity [2]	SMILES
substrate [(+)]	substrate [(+)]	C[C@]12CC[C@@H]3c4ccc(OS(=O)(=O)O)cc4CC[C@H]3[C@@H]1CCC2=O [ESTRONE SULFURIC ACID]
substrate [(+)]	substrate [(+)]	CC[C@H](C)C(=O)O[C@H]1C[C@H](O)C=C2C=C[C@H](C)[C@H](CC[C@@H](O)C[C@@H](O)CC(=O)O)[C@H]21 [PRAVASTATIN]

SMILES	Activity [1]	Activity [2]
C[C@]12CC[C@@H]3c4ccc(O)cc4CC[C@H]3[C@@H]1CC[C@@H]2O[C@@H]1O[C@H](C(=O)O)[C@@H](O)[C@H](O)[C@H]1O [ESTRADIOL 17B GLUCURONIDE]	substrate [(+)]	substrate [(+)]
